We go through 19 molecules from PubChem BioAssay AID328 (DTP/NCI, 2004).

This test has as its system BDF1 mice, P388 leukemia ip, median survival T/C. Put plainly: NCI In Vivo Anticancer Drug Screen. Data for tumor model P388 Leukemia (intraperitoneal) in B6D2F1 (BDF1) mice. Conditions: endpoint: median survival time, higher = longer survival. The method in brief:
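Each value expresses how treatment altered survival: treated-mouse outcome over vehicle-mouse outcome, both groups bearing the transplanted tumour.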

Where [1] appears, read: dose: 100.0 mg/kg/injection, schedule: Q01DX009 (ip), vehicle: saline with Tween-80.
Setting [2] is: dose: 100.0 mg/kg/injection, schedule: Q04DX003 (ip), vehicle: saline with Tween-80.
[3] abbreviates: dose: 200.0 mg/kg/injection, schedule: Q01DX009 (ip), vehicle: saline with Tween-80.
The mark [4] stands for this setting: dose: 200.0 mg/kg/injection, schedule: Q04DX003 (ip), vehicle: saline with Tween-80.
[5] abbreviates: dose: 400.0 mg/kg/injection, schedule: Q01DX009 (ip), vehicle: saline with Tween-80.
[6] abbreviates: dose: 400.0 mg/kg/injection, schedule: Q04DX003 (ip), vehicle: saline with Tween-80.
Setting [7] is: dose: 50.0 mg/kg/injection, schedule: Q01DX009 (ip), vehicle: saline with Tween-80.
Setting [8] is: dose: 100.0 mg/kg/injection, schedule: Q04DX003 (ip), vehicle: saline.
[9] abbreviates: dose: 200.0 mg/kg/injection, schedule: Q04DX003 (ip), vehicle: saline.

Where “and” joins values, the source holds several entries; their conditions need not be identical. Identical values can stand only once. Toxic doses and inconclusive results are not listed.

As for `CC1OC(O[C@@H]2C=C3CC[C@@H]4[C@H](CC[C@]5(C)[C@@H](c6ccc(=O)oc6)CC[C@]45O)[C@@]3(C)CC2)C(O)C(O)C1O` (some centres not stated), the T/C is, setting by setting: (dose: 2.5 mg/kg/injection, schedule: Q01DX010 (ip), vehicle: carboxymethylcellulose (CMC)) 105 % of control; (dose: 5.0 mg/kg/injection, schedule: Q01DX010 (ip), vehicle: carboxymethylcellulose (CMC)) 105 % of control.
Consider `CC(=O)N/N=C(/C)C(O)(c1ccccc1)c1ccccc1`, for which the T/C by setting is: under setting [1], 99 % of control; under setting [2], 103 % of control; under setting [3], 100 % of control; under setting [4], 99 % of control; under setting [5], 99 % of control; under setting [6], 87 % of control.
Turning to `CN=C(N)c1ccc(N=C(N)c2ccc(C(N)=Nc3ccc(C(N)=NC)cc3)cc2)cc1`, the T/C was 150 % of control and 172 % of control (dose: 13.2 mg/kg/injection, schedule: Q01DX009 (ip), vehicle: saline); 240 % of control and 218 % of control (dose: 20.0 mg/kg/injection, schedule: Q01DX009 (ip), vehicle: saline); 268 % of control and 218 % of control (dose: 30.0 mg/kg/injection, schedule: Q01DX009 (ip), vehicle: saline).
`O=COC1CC2CC1C1CCCC21` (configuration not stated): the T/C runs as follows: under setting [7], 122 % of control; (dose: 50.0 mg/kg/injection, schedule: Q04DX003 (ip), vehicle: saline) 100 % of control; under setting [1], 109 % of control; under setting [8], 96 % of control; under setting [9], 100 % of control.
For the molecule `NC(=O)NC1OC(COC(=O)c2ccccc2)C(OC(=O)c2ccccc2)C1OC(=O)c1ccccc1` (configuration not stated), the T/C was 107 % of control (dose: 50.0 mg/kg/injection, schedule: Q04DX003 (ip), vehicle: saline with Tween-80); 90 % of control and 96 % of control under setting [2]; 93 % of control under setting [4]; 87 % of control and 90 % of control under setting [6].
As for `Nc1nc2nc(N=Nc3ccccc3)[nH]c2c(=O)[nH]1`, the T/C is 100 % of control (dose: 50.0 mg/kg/injection, schedule: Q01DX005 (ip), vehicle: saline with Tween-80); 91 % of control (dose: 100.0 mg/kg/injection, schedule: Q01DX005 (ip), vehicle: saline with Tween-80); 110 % of control (dose: 200.0 mg/kg/injection, schedule: Q01DX005 (ip), vehicle: saline with Tween-80).
With `Cc1nc(N)c(=O)[nH]c1C`, the T/C under setting [1] was 95 % of control; the T/C under setting [2] is 108 % of control; the T/C under setting [3] was 90 % of control; the T/C under setting [4] is 95 % of control; the T/C under setting [5] is 90 % of control; the T/C under setting [6] was 91 % of control.
Regarding `CCN(CC)CCNc1ccc(C)c2sc3ccccc3c(=O)c12` (tested in a mixture with another compound), the T/C is 100 % of control and 121 % of control (dose: 5.5 mg/kg/injection, schedule: Q01DX009 (ip), vehicle: saline); 90 % of control and 110 % of control (dose: 8.2 mg/kg/injection, schedule: Q01DX009 (ip), vehicle: saline); 122 % of control (dose: 22.0 mg/kg/injection, schedule: Q01DX009 (ip), vehicle: saline); 110 % of control (dose: 33.0 mg/kg/injection, schedule: Q01DX009 (ip), vehicle: saline); 116 % of control (dose: 35.0 mg/kg/injection, schedule: Q01DX009 (ip), vehicle: saline); 154 % of control (dose: 50.0 mg/kg/injection, schedule: Q01DX009 (ip), vehicle: saline). Also, the T/C reads like this: (dose: 75.0 mg/kg/injection, schedule: Q01DX009 (ip), vehicle: saline) 154 % of control and 180 % of control; (dose: 88.0 mg/kg/injection, schedule: Q04DX003 (ip), vehicle: saline) 122 % of control; (dose: 100.0 mg/kg/injection, schedule: Q04DX003 (ip), vehicle: alcohol) 94 % of control; under setting [8], 116 % of control; (dose: 200.0 mg/kg/injection, schedule: Q04DX003 (ip), vehicle: alcohol) 111 % of control; under setting [9], 166 % of control. The T/C by setting is: (dose: 300.0 mg/kg/injection, schedule: Q04DX003 (ip), vehicle: saline) 95 % of control; (dose: 400.0 mg/kg/injection, schedule: Q04DX003 (ip), vehicle: alcohol) 111 % of control.
For the molecule `CCOc1ccc(/C=N/Nc2ccc([N+](=O)[O-])cc2)cc1OC`, the T/C under setting [1] is 100 % of control, the T/C under setting [3] is 115 % of control and the T/C under setting [5] is 115 % of control.
In the case of `O=CN1CCCC1C(=O)O` (configuration not stated), the T/C reads like this: (dose: 6.25 mg/kg/injection, schedule: Q01DX009 (ip), vehicle: water) 103 % of control; (dose: 12.5 mg/kg/injection, schedule: Q01DX009 (ip), vehicle: water) 99 % of control; (dose: 25.0 mg/kg/injection, schedule: Q01DX009 (ip), vehicle: water) 96 % of control; (dose: 50.0 mg/kg/injection, schedule: Q01DX009 (ip), vehicle: water) 94 % of control.
With `c1ccc(-c2nc3ccccc3nc2-c2ccc(-c3ccc(-c4nc5ccccc5nc4-c4ccccc4)cc3)cc2)cc1`, the T/C was 88 % of control under setting [7] and 88 % of control under setting [3].
As for `Cc1ccc(N=C(c2ccccc2)c2ccc([N+](=O)[O-])cc2)cc1`, the T/C is 108 % of control (dose: 100.0 mg/kg/injection, schedule: Q01DX001 (ip), vehicle: Klucel (hydroxypropylcellulose) (HPC)); 100 % of control (dose: 200.0 mg/kg/injection, schedule: Q01DX001 (ip), vehicle: Klucel (hydroxypropylcellulose) (HPC)); 104 % of control (dose: 400.0 mg/kg/injection, schedule: Q01DX001 (ip), vehicle: Klucel (hydroxypropylcellulose) (HPC)).
For `CC(=O)CC(=O)NCCNCCNC(=O)CC(C)=O`, the T/C is, setting by setting: under setting [8], 100 % of control; under setting [9], 114 % of control; (dose: 400.0 mg/kg/injection, schedule: Q04DX003 (ip), vehicle: saline) 100 % of control.
Consider `COc1c(OC)c(OC)c2c(c1OC)c(=O)c1ccccc1n2C`, for which the T/C by setting is: (dose: 50.0 mg/kg/injection, schedule: Q01DX010 (ip), vehicle: carboxymethylcellulose (CMC)) 104 % of control; (dose: 100.0 mg/kg/injection, schedule: Q01DX010 (ip), vehicle: carboxymethylcellulose (CMC)) 122 % of control.
Turning to `CC1OC(OC2C(=O)c3c(O)cc(O)cc3OC2c2ccc(O)c(O)c2)C(O)C(O)C1O` (configuration not stated), the T/C is, setting by setting: (dose: 25.0 mg/kg/injection, schedule: Q01DX009 (ip), vehicle: alcohol) 100 % of control; (dose: 50.0 mg/kg/injection, schedule: Q01DX009 (ip), vehicle: alcohol) 96 % of control; (dose: 100.0 mg/kg/injection, schedule: Q01DX009 (ip), vehicle: alcohol) 92 % of control; (dose: 200.0 mg/kg/injection, schedule: Q01DX009 (ip), vehicle: alcohol) 106 % of control; under setting [3], 115 % of control; (dose: 300.0 mg/kg/injection, schedule: Q01DX009 (ip), vehicle: saline with Tween-80) 90 % of control. For the same molecule, the T/C (dose: 455.0 mg/kg/injection, schedule: Q01DX009 (ip), vehicle: saline with Tween-80) is 99 % of control.
In the case of `O=C(Nc1ccc(F)cc1)c1ccc(C(=O)Nc2ccc(F)cc2)cc1`, the T/C reads like this: under setting [2], 108 % of control; under setting [4], 91 % of control; under setting [6], 91 % of control.
On to `CN(C)CCCNC(=O)Nc1ccccc1`, for which the T/C by setting is: (dose: 100.0 mg/kg/injection, schedule: Q04DX003 (ip), vehicle: Klucel (hydroxypropylcellulose) (HPC)) 95 % of control; (dose: 200.0 mg/kg/injection, schedule: Q04DX003 (ip), vehicle: Klucel (hydroxypropylcellulose) (HPC)) 104 % of control.
Consider `Cc1cc(C)c(CCO)c(C)c1`, for which the T/C (dose: 0.37 mg/kg/injection, schedule: Q01DX009 (ip), vehicle: DMSO) is 113 % of control; the T/C (dose: 0.75 mg/kg/injection, schedule: Q01DX009 (ip), vehicle: DMSO) is 113 % of control; the T/C (dose: 1.5 mg/kg/injection, schedule: Q01DX009 (ip), vehicle: DMSO) is 95 % of control; the T/C (dose: 3.0 mg/kg/injection, schedule: Q01DX009 (ip), vehicle: DMSO) was 88 % of control and 109 % of control; the T/C (dose: 12.0 mg/kg/injection, schedule: Q01DX009 (ip), vehicle: DMSO) was 92 % of control; the T/C (dose: 25.0 mg/kg/injection, schedule: Q04DX003 (ip), vehicle: DMSO) was 88 % of control. Further, the T/C (dose: 50.0 mg/kg/injection, schedule: Q04DX003 (ip), vehicle: DMSO) was 88 % of control.
For `O=C(NC12CC3CC(CC(C3)C1)C2)C(F)(F)F`, the T/C was 98 % of control under setting [7], 105 % of control under setting [1] and 102 % of control under setting [3].
